Experimental data taken from paper PMC9948168, “Vanillin-Based Indolin-2-one Derivative Bearing a Pyridyl Moiety as a Promising Anti-Breast Cancer Agent via Anti-Estrogenic Activity” (ACS Omega, 2023).

What was measured:
Assay in all cases: NCI-60 one-dose screening
Format in all cases: cell-based
[1] = test system: SK-MEL-28; conditions: Homo sapiens, SK-MEL-28, Melanoma, read-out: GI (%)
[2] = test system: HS 578T; conditions: Homo sapiens, Breast Cancer, read-out: GI (%)
[3] = test system: NCI/ADR-RES; conditions: Homo sapiens, Ovarian Cancer, read-out: GI (%)
[4] = test system: OVCAR-3; conditions: Homo sapiens, OVCAR-3, 10 μM; OVCAR-3, Ovarian Cancer; read-out: GI (%)
[5] = test system: UACC-257; conditions: Homo sapiens, UACC-257, Melanoma, read-out: GI (%)
[6] = test system: DU-145; conditions: Homo sapiens, DU-145, Prostate Cancer, read-out: GI (%)
[7] = test system: EKVX; conditions: Homo sapiens, Non-Small Cell Lung Cancer, read-out: GI (%)
[8] = test system: KM12; conditions: Homo sapiens, KM12, Colon Cancer, read-out: GI (%)
[9] = test system: NCI-H522; conditions: Homo sapiens, NCI-H522, Non-Small Cell Lung Cancer, read-out: GI (%)
[10] = test system: LOX IMVI; conditions: Homo sapiens, Melanoma, read-out: GI (%)
[11] = test system: OVCAR-8; conditions: Homo sapiens, OVCAR-8, Ovarian Cancer, read-out: GI (%)
[12] = test system: RPMI-8226; conditions: Homo sapiens, RPMI-8226, Leukemias, read-out: GI (%)
[13] = test system: HCT-15; conditions: Homo sapiens, HCT-15, Colon Cancer, read-out: GI (%)
[14] = test system: UO-31; conditions: Homo sapiens, UO-31, Renal Cancer, read-out: GI (%)
[15] = test system: MCF7; conditions: Homo sapiens, MCF7, 10 μM; MCF7, Breast Cancer; read-out: GI (%)
[16] = test system: NCI-H226; conditions: Homo sapiens, NCI-H226, Non-Small Cell Lung Cancer, read-out: GI (%)
[17] = test system: TK-10; conditions: Homo sapiens, TK-10, Renal Cancer, read-out: GI (%)
[18] = test system: HCC-2998; conditions: Homo sapiens, HCC-2998, Colon Cancer, read-out: GI (%)
[19] = test system: NCI-H460; conditions: Homo sapiens, NCI-H460, Non-Small Cell Lung Cancer, read-out: GI (%)
[20] = test system: MDA-MB-435; conditions: Homo sapiens, MDA-MB-435, Melanoma, read-out: GI (%)
[21] = test system: CCRF-CEM; conditions: Homo sapiens, Leukemias, read-out: GI (%)
[22] = test system: PC-3; conditions: Homo sapiens, PC-3, Prostate Cancer, read-out: GI (%)
[23] = test system: U251; conditions: Homo sapiens, U-251, U251, CNS Cancer, read-out: GI (%)
[24] = test system: NCI-H23; conditions: Homo sapiens, NCI-H23, Non-Small Cell Lung Cancer, read-out: GI (%)
[25] = test system: IGROV1; conditions: Homo sapiens, IGROV-1, IGROV1, Ovarian Cancer, read-out: GI (%)
[26] = test system: SNB-19; conditions: Homo sapiens, SNB-19, CNS Cancer, read-out: GI (%)
[27] = test system: MALME-3M; conditions: Homo sapiens, Melanoma, read-out: GI (%)
[28] = test system: MOLT-4; conditions: Homo sapiens, MOLT-4, Leukemias, read-out: GI (%)
[29] = test system: SF-268; conditions: Homo sapiens, SF-268, CNS Cancer, read-out: GI (%)
[30] = test system: SK-MEL-5; conditions: Homo sapiens, SK-MEL-5, Melanoma, read-out: GI (%)
[31] = test system: SN12C; conditions: Homo sapiens, Renal Cancer, read-out: GI (%)
[32] = test system: HL-60(TB); conditions: Homo sapiens, Leukemias, read-out: GI (%)
[33] = test system: OVCAR-5; conditions: Homo sapiens, OVCAR-5, Ovarian Cancer, read-out: GI (%)
[34] = test system: MDA-MB-468; conditions: Homo sapiens, MDA-MB-468, Breast Cancer, read-out: GI (%)
[35] = test system: K-562; conditions: Homo sapiens, K562, K-562, Leukemias, read-out: GI (%)

With COc1cc(C=C2C(=O)Nc3ccc(Cl)cc32)ccc1OCc1ccc(Cl)cc1 (mixture of isomers) [6g] the inhibition at 10 µM [1] was -3.4%, the inhibition at 10 µM [2] was 2.99% and the inhibition at 10 µM [3] was 16.1%. For the same molecule, the inhibition at 10 µM [4] was 74 to 97%, the inhibition at 10 µM [5] was -8.01% and the inhibition at 10 µM [6] was 6.57%. For the same molecule, the inhibition at 10 µM [7] was 27.5%, the inhibition at 10 µM [8] was 3.49% and the inhibition at 10 µM [9] was 6.96%. It also gave an inhibition at 10 µM [10] of 46.1%, an inhibition at 10 µM [11] of 8.51% and an inhibition at 10 µM [12] of -3.63%. For the same molecule, the inhibition at 10 µM [13] was 13.9%, the inhibition at 10 µM [14] was 37.9% and the inhibition at 10 µM [15] was 54.4%. It also gave an inhibition at 10 µM [16] of 17.1%, an inhibition at 10 µM [17] of -56% and an inhibition at 10 µM [18] of -4.18%. It also gave an inhibition at 10 µM [19] of 50.5%, an inhibition at 10 µM [20] of -1.14% and an inhibition at 10 µM [21] of 18.1%. It also gave an inhibition at 10 µM [22] of 22.3%, an inhibition at 10 µM [23] of 52.1% and an inhibition at 10 µM [24] of 20.2%. The inhibition at 10 µM [25] was 37.5%, the inhibition at 10 µM [26] was 12.8% and the inhibition at 10 µM [27] was 18.7%. For the same molecule, the inhibition at 10 µM [28] was 8.95%, the inhibition at 10 µM [29] was 20% and the inhibition at 10 µM [30] was 8.56%. It also gave an inhibition at 10 µM [31] of 9.18%, an inhibition at 10 µM [32] of -1.67% and an inhibition at 10 µM [33] of 3.04%. It also gave an inhibition at 10 µM [34] of 17.2% and an inhibition at 10 µM [35] of 10.4%.
For COc1cc(C=C2C(=O)Nc3cc(Cl)ccc32)ccc1OCc1ccc(Cl)cc1 (mixture of isomers) [6l], the inhibition at 10 µM [1] was -1.11%, the inhibition at 10 µM [2] was 4.96% and the inhibition at 10 µM [3] was 0.31%. It also gave an inhibition at 10 µM [4] of -3.06%, an inhibition at 10 µM [5] of -8.7% and an inhibition at 10 µM [6] of -3.93%. It also gave an inhibition at 10 µM [7] of 24.8%, an inhibition at 10 µM [8] of 3.74% and an inhibition at 10 µM [9] of 4.01%. It also gave an inhibition at 10 µM [10] of -8.24%, an inhibition at 10 µM [11] of 2.85% and an inhibition at 10 µM [12] of 11.9%. For the same molecule, the inhibition at 10 µM [13] was 6.77%, the inhibition at 10 µM [14] was 22.2% and the inhibition at 10 µM [15] was 50 to 65%. For the same molecule, the inhibition at 10 µM [16] was 4.89%, the inhibition at 10 µM [17] was -59.6% and the inhibition at 10 µM [18] was -18.5%. The inhibition at 10 µM [19] was 9.67%, the inhibition at 10 µM [20] was -5.52% and the inhibition at 10 µM [21] was 3.42%. For the same molecule, the inhibition at 10 µM [22] was 11.1%, the inhibition at 10 µM [23] was -5.85% and the inhibition at 10 µM [24] was 0.58%. It also gave an inhibition at 10 µM [25] of 27.7%, an inhibition at 10 µM [26] of -5.43% and an inhibition at 10 µM [27] of 2.26%. For the same molecule, the inhibition at 10 µM [28] was 6.35%, the inhibition at 10 µM [29] was -5.63% and the inhibition at 10 µM [30] was 1.7%. It also gave an inhibition at 10 µM [31] of 1.62%, an inhibition at 10 µM [32] of -11.5% and an inhibition at 10 µM [33] of -2.97%. For the same molecule, the inhibition at 10 µM [34] was 4.61% and the inhibition at 10 µM [35] was 9.88%.
